Data set [1] deals with PI3K/AKT/eNOS signaling pathway, MasR in HUVECs. The data set is described as follows: Western blot of PI3K/AKT/eNOS signaling pathway and MasR. The class given is cell-based, human. The procedure:
After the specified treatments, HUVECs were harvested using a cell scraper and lysed in cell lysis buffer (Wuhan Boster Biological Engineering Co., Ltd.) for 30 min at 4°C. Total protein was quantified using a BCA protein assay kit. Lysate (20 μg) from each sample was separated by 10% sodium dodecyl sulfate–polyacrylamide gel electrophoresis (SDS-PAGE) and then transferred to a polyvinylidene fluoride (PVDF) membrane. The membrane was blocked with a fresh blocking buffer containing 5% skim milk in Tris-buffered saline with 0.1% Tween 20 (TBS-T) for 2 h at room temperature and then incubated with primary antibodies against AKT (1:1000 dilution, #4691, Cell Signaling Technology), p-AKT (1:2000 dilution, #4060, Cell Signaling Technology), PI3K (1:1000 dilution, ab191606, Abcam), p-PI3K (1:1000 dilution, ab278545, Abcam), eNOS (1:1000 dilution, #32027, Cell Signaling Technology), p-eNOS (1:1000 dilution, ab215717, Abcam), and Mas (1:1000 dilution, #85003-1-RR, Proteintech) overnight at 4°C with shaking. The membrane was washed with TBS-T for 15 min and then incubated with horseradish peroxidase (HRP)–conjugated goat anti-rabbit secondary antibody (Wuhan Sanying Biotechnology Co., Ltd.) at a 1:2000 dilution in TBS-T and 3% skim milk for 90 min at room temperature. The membrane was washed three times with TBS-T, each for 15 min, and the immune reaction signals were detected using an ECL detection method. Protein bands were detected using a chemiluminescent gel imaging system (Bio-Rad Lab, China). Protein expression was quantitatively analyzed using ImageJ software (National Institutes of Health, Bethesda, MD, United States), and the experiment was repeated three times.

The test system of the next data set is S. aureus (ATCC 25923). The data set is described as follows: MIC and growth inhibition, broth microdilution. Type of data set: cell-based, Staphylococcus aureus. The protocol:
(§1) The minimum inhibitory concentrations (MICs) of DM and MYR-DM-ANG1-7 were determined using the broth microdilution method. E. coli (ATCC 25922) and S. aureus (ATCC 25923) were cultured overnight in Mueller–Hinton broth (MHB) at 37°C. The cultures were diluted to 2 × 10^5 CFU/mL. The peptides were serially diluted in 10 mM phosphate-buffered solution (PBS) and added to a 96-well plate. The bacterial suspensions were mixed with an equal volume of peptide solution and incubated at 37°C for 18 h. Bacterial growth inhibition was determined by measuring the absorbance at 600 nm using a M200 multiwavelength microplate reader (Infinite M200 PRO, Switzerland). Subsequently, bacterial suspensions were treated with 1 × MIC, 2 × MIC, 3 × MIC, and 4 × MIC concentrations of the AMPs and sampled at 0, 3, 6, 12, 18, and 24 h. The absorbance was measured at 600 nm. The experiment was repeated three times.

The subject of data set [2] is HUVECs. The data set is described as follows: Reactive oxygen species, DCFH-DA flow cytometry. The class given is cell-based, human. Particulars: 20 μg/mL, compared with the HG + LPS group, p < 0.01. The protocol: To evaluate the antioxidant activity of MYR-DM-ANG1-7, HUVECs were cultured in DMEM supplemented with 10% FBS at 37°C and 5% CO2. After serum starvation for 24 h, the cells were divided into […] experimental groups: normal control group, high glucose + LPS, high glucose + DM group, and high glucose + MYR-DM-ANG1-7. After drug treatment, the cells were washed three times with ice-cold PBS and incubated with 10 μM DCFH-DA probe in serum-free medium at 37°C in the dark for 20 min. After removing the probe with PBS, the fluorescence intensity of 10,000 live cells was immediately measured by flow cytometry (excitation: 488 nm and emission: 530/30 nm). The data were expressed as the geometric mean fluorescence intensity (MFI) of each sample.

The subject of the next data set is S. aureus biofilms. The data set is described as follows: Antibiofilm activity, crystal violet staining and colony counting. To be noted: different concentrations, 37°C, 24 h, crystal violet OD 595 nm and viable count. Type of data set: cell-based, Staphylococcus aureus. The procedure:
(§2) E. coli (ATCC 25922) and S. aureus (ATCC 25923) were cultured overnight in MHB medium at 37°C. The bacterial suspension was diluted to 100 times and added to a 12-well plate (500 μL/well). Each peptide with a different concentration was added to the corresponding well plate and incubated at 37°C for 24 h. After incubation, 100 μL of culture supernatant was discarded. The biofilm was fixed with 100 μL of 100% methanol for 15 min, then air-dried, then dyed with 0.1% crystal violet (CV) for 30 mins, and washed with distilled water three times. After adding 200 μL of 95% ethanol, the inhibition rate of the biofilm was calculated by measuring the OD value at 595 nm with Infinite M200 PRO, Switzerland. After ultrasonic treatment, the biofilm was fully dispersed into single cells, and the cell suspension was diluted to a suitable concentration for colony counting. All experiments were repeated three times.
(§3) The formation of bacterial biofilms in the wounds of DFU patients is the main cause of bacterial resistance. By measuring the antibiofilm ability, the inhibitory and clearing effects of drugs on biofilms can be assessed. In the case of preventing biofilm formation, E. coli and S. aureus were cultured in LB nutrient medium with different concentrations of the novel AMP MYR-DM-ANG1-7 in 24-well plates at 37°C and incubate for 24 h. […]

In data set [3] the test system is HUVECs. Description: MDA, thiobarbituric acid method. Type of data set: cell-based, human. Particulars: HUVEC supernatant, HG + LPS (HG + LPS increased by 1.65 times); n = 3. The procedure: The level of MDA was determined by the thiobarbituric acid (TBA) method. Briefly, 100 μL of cell supernatant was mixed with 200 μL of a 10% trichloroacetic acid solution of 0.67% TBA. The mixture was incubated at 95°C for 30 min, cooled on ice, and centrifuged at 12,000 × g at 4°C for 10 min. The absorbance of the supernatant was measured at 532 nm using an enzyme-labeled instrument. The experiments were repeated three times.

Another data set concerns E. coli (ATCC 25922). Description: MIC and growth inhibition, broth microdilution. Type of data set: cell-based, Escherichia coli. The protocol:
as §1

Data set [4] concerns mouse red blood cell suspension. To be noted: 37°C, 60 min, OD 590 nm, 0.1% Triton X-100 positive control.
Method: In order to evaluate the hemolytic activity of self-assembled peptides on normal mammalian cells, fresh blood of normal mice was collected, and heparin sodium was anticoagulated and stored. After centrifugation at 4°C and 3000 rpm for 10 min, the precipitate was collected, washed, and centrifuged with normal saline for three times and then resuspended at 10% (v/v). We mix 100 μL of different concentrations of drugs with 100 μL of mouse red blood cell suspension, incubate in a constant temperature oscillation incubator at 37°C for 60 min, then take out and centrifuge according to the above setting, absorb 100 μL of supernatant, put it in a 96-well cell culture plate, and measure the OD value at 590 nm by M200 full-band enzyme-labeled instrument (Infinite M200 Pro, Switzerland). Then, 100 μL of 0.1% Triton X-100 solution was used as a positive control and PBS as a negative control. According to the formula, hemolysis (%) = (experimental group OD value − negative control OD value)/(positive control OD value − negative control OD value) × 100%.
The next data set deals with E. coli biofilms. Description: Antibiofilm activity, crystal violet staining and colony counting. Type of data set: cell-based, Escherichia coli. Particulars: different concentrations, 37°C, 24 h, crystal violet OD 595 nm and viable count. The protocol:
as §2, §3

[5] abbreviates: 4 × MIC (128 μg/mL), OD 600 nm at 0-24 h, repeated three times.

Where two headings read alike, the source gives them in different places. Where no end group is shown, it is not given here. The star is where a group is joined. Myristoyl = CCCCCCCCCCCCCC(=O)*

The record followed here is article PMC12419922, “Myristoylated Cathelicidin-DM Fused With ANG1-7: A Novel Self-Assembling Antimicrobial Peptide for the Treatment and Mechanism of Diabetic Infected Wounds” (Journal of Diabetes Research, 2025).

In the case of “Myristoyl-SSRRKPCKGWLCKLKLRGGYTLIGSATNLNRPTYVRAGGGDRVYIHP (cysteines drawn unpaired) [MYR-DM-ANG1-7]”, the “expression of membrane receptor MasR” value in data set [1] (after HG treatment and drug treatment) is “significantly increased”. Moreover, the “phosphorylation level of eNOS” value in data set [1] (pretreatment then HG + LPS) was “increased”. Also, the “phosphorylation level of AKT (p-AKT/total AKT)” value in data set [1] (pretreatment then HG + LPS (HG + LPS 0.4-fold), n = 3) is listed as 0.94 fold. Further, in data set [1] (pretreatment then HG + LPS (HG + LPS 0.8-fold), n = 3), the “phosphorylation level of PI3K (p-PI3K/total PI3K)” value was found to be 1.28 fold. Moreover, the “growth of S. aureus (inhibition curve)” value in the data set with S. aureus (ATCC 25923) (setting [5]) is “completely inhibit”. The Minimum inhibitory concentration with S. aureus (ATCC 25923) (S. aureus ATCC 25923, broth microdilution, MHB, 2 × 10^5 CFU/mL, 37°C, 18 h, absorbance 600 nm) amounted to 16 µg/mL; in the data set with E. coli (ATCC 25922) (E. coli ATCC 25922, broth microdilution, MHB, 2 × 10^5 CFU/mL, 37°C, 18 h, absorbance 600 nm), 12 µg/mL. In addition, the “reduction of intracellular reactive oxygen species level” value in the data set on HUVECs [2] is on record as “approximately 32%”. For the same substance, the “formation of S. aureus biofilms” value with S. aureus biofilms is given as “effectively inhibit”. For the same substance, in the data set on HUVECs [3], the “secretion of MDA, decreased by” value came out at 0.51 times. Also, in the data set on E. coli (ATCC 25922) (setting [5]), the “growth of E. coli (inhibition curve)” value was “completely inhibit”. Also, the “increase of antibacterial efficacy compared to DM” value in the data set with E. coli (ATCC 25922) (from MIC values against S. aureus and E. coli) was 1.3 fold. Also, the “hemolysis rate of red blood cells” value in data set [4] (128 μg/mL) is listed as 6.01%; in data set [4] (8-64 μg/mL), “less than 5%”. In addition, in the data set on E. coli biofilms, the “formation of E. coli biofilms” value is “effectively inhibit”.
